Data reported in ChEMBL document CHEMBL6153150, “Design, Synthesis, and Biological Evaluation of Chiral-Proline Derivatives as Novel HSP90 Inhibitors” (ACS Med Chem Lett, 2025).
Active and inactive are the calls of the source. No cut-off for these calls is given here.

Assays:
Heat shock protein HSP90 [1] = biological target: T1, Heat shock protein HSP90 (Homo sapiens, UniProt P07900+P08238); experiment: Binding affinity to Hsp90 (unknown origin) assessed as dissociation constant incubated for 30 mins by fluorescence spectrophotometric analysis; type: protein assay
Heat shock protein HSP90 [2] = biological target: T1, Heat shock protein HSP90; experiment: Inhibition of Hsp90 (unknown origin) ATPase activity assessed as decrease in absorbance using PEP as substrate in presence of ATP and NADH by absorbance based assay; type: protein assay
Endoplasmin [3] = biological target: T2, Endoplasmin (Homo sapiens, UniProt P14625); experiment: Inhibition of GRP94 (unknown origin) incubated for 12 to 16 hrs by FP competition assay
HCT-116 = experiment: Antiproliferative activity against human HCT-116 cells assessed as cell viability inhibition rate incubated for 72 hr by MTT assay; type: functional, cell-based; settings: HCT-116, 72 h
MCF7 = experiment: Antiproliferative activity against human MCF7 cells assessed as cell viability inhibition rate incubated for 72 hr by MTT assay; type: functional, cell-based; settings: MCF7, 72 h
SK-BR-3 = experiment: Antiproliferative activity against human SK-BR-3 cells assessed as cell viability inhibition rate incubated for 72 hr by MTT assay; type: functional, cell-based; settings: SK-BR-3, 72 h
K562 = experiment: Antiproliferative activity against human K562 cells assessed as cell viability inhibition rate incubated for 72 hr by MTT assay; type: functional, cell-based; settings: K562, 72 h
A549 = experiment: Antiproliferative activity against human A549 cells assessed as cell viability inhibition rate incubated for 72 hr by MTT assay; type: functional, cell-based; settings: A549, 72 h
[4] = biological target: T3, Heat shock protein HSP 90-alpha (Homo sapiens, UniProt P07900); experiment: Inhibition of HSP90alpha (unknown origin) incubated for 12 to 16 hrs by FP competition assay
[5] = Selectivity ratio of IC50 for inhibition of GRP94 (unknown origin) to IC50 for inhibition of HSP90alpha (unknown origin)
[6] = Tmax in rat plasma at 50 mg/kg, po and measured upto 24 hr by LC-MS/MS analysis; type: ADME, organism-based
[7] = Cmax in rat plasma at 50 mg/kg, po and measured upto 24 hr by LC-MS/MS analysis; type: ADME, organism-based
[8] = AUC in rat plasma at 50 mg/kg, po and measured upto 24 hr by LC-MS/MS analysis; type: ADME, organism-based
[9] = Half life in rat plasma at 50 mg/kg, po and measured upto 24 hr by LC-MS/MS analysis; type: ADME, organism-based
[10] = Clearance in rat plasma at 50 mg/kg, po and measured upto 24 hr by LC-MS/MS analysis; type: ADME, organism-based
[11] = Oral bioavailability in rat at 50 mg/kg and measured upto 24 hr by LC-MS/MS analysis; type: ADME, organism-based; settings: in vivo
[12] = biological target: T3, Heat shock protein HSP 90-alpha; experiment: Binding affinity to Hsp90alpha (unknown origin) assessed as dissociation constant
Endoplasmin [13] = biological target: T2, Endoplasmin; experiment: Binding affinity to GRP94 (unknown origin) assessed as dissociation constant

T2 sequence (P14625 whole entry): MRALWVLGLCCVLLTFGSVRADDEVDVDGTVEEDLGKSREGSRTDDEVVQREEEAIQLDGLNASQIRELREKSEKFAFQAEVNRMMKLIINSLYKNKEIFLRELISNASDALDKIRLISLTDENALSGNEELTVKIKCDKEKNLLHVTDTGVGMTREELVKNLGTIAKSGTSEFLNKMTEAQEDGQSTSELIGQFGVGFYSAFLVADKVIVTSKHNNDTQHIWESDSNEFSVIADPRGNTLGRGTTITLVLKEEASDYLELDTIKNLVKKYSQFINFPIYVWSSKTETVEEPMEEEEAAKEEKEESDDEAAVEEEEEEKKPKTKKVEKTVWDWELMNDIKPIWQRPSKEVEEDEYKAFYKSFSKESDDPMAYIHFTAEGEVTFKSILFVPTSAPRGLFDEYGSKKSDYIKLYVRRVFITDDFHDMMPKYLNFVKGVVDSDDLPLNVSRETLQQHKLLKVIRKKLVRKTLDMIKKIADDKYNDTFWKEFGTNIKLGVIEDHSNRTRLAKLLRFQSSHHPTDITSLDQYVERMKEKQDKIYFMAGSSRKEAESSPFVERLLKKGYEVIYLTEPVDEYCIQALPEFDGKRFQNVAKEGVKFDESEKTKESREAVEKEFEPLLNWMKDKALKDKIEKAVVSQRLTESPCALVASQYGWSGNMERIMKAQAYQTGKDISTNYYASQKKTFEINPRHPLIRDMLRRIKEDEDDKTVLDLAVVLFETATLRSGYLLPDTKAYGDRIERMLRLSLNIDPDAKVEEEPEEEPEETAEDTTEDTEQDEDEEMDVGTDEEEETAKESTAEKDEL

CC(C)N(Cc1cccnc1)C(=O)[C@H]1CCCN1C(=O)c1cc(C2CC2)c(OP(=O)(O)O)cc1O
Kd (Heat shock protein HSP90 [1]): 0.136 µM | IC50 (Heat shock protein HSP90 [2]): 0.237 µM

CC(C)c1cc(C(=O)N2C[C@@H](c3ccccc3)C[C@@H]2C(=O)NCCCN2CCOCC2)c(O)cc1O
Kd (Heat shock protein HSP90 [1]): 0.087 µM | IC50 (Endoplasmin [3]): 0.773 µM | IC50 (HCT-116): 0.206 µM | IC50 (MCF7): 0.061 µM | IC50 (SK-BR-3): 0.21 µM | IC50 (K562): 0.433 µM | IC50 (A549): 0.028 µM | IC50 [4]: 0.154 µM | Ratio IC50 [5]: 5.02 | Tmax [6]: 0.733 h | Cmax [7]: 65.7 µg/mL | AUC at 24 h [8]: 186 µg·h/mL | half-life [9]: 5.8 h | CL/F [10]: 0.0876 L/h/kg | bioavailability [11]: 5.5%

O=C(NCCCN1CCOCC1)[C@H]1C[C@H](c2ccccc2)CN1C(=O)c1cc(C2CC2)c(O)cc1O
Kd (Heat shock protein HSP90 [1]): 0.068 µM | IC50 (Endoplasmin [3]): 0.203 µM | IC50 (HCT-116): 0.187 µM | IC50 (MCF7): 0.072 µM | IC50 (SK-BR-3): 0.105 µM | IC50 (K562): 0.403 µM | IC50 (A549): 0.031 µM | IC50 [4]: 0.136 µM | Ratio IC50 [5]: 1.49 | Tmax [6]: 0.883 h | Cmax [7]: 76.5 µg/mL | AUC at 24 h [8]: 239 µg·h/mL | half-life [9]: 6.9 h | CL/F [10]: 0.105 L/h/kg | bioavailability [11]: 7.1%

CCN1CCN(C(=O)[C@H]2C[C@H](c3ccccc3)CN2C(=O)c2cc(C(C)C)c(O)cc2O)CC1
Activity (Heat shock protein HSP90 [1]): inactive | inhibition (Heat shock protein HSP90 [2]): inactive

CC(C)c1cc(C(=O)N2C[C@@H](c3ccccc3)C[C@@H]2C(=O)NCC(=O)N2CCCCC2)c(O)cc1O
Activity (Heat shock protein HSP90 [1]): inactive | inhibition (Heat shock protein HSP90 [2]): inactive

O=C(c1ccccc1O)N1Cc2ccccc2C1
Kd (Heat shock protein HSP90 [1]): 0.532 µM | IC50 (Heat shock protein HSP90 [2]): 6.94 µM

CC(C)N(Cc1cccnc1)C(=O)[C@H]1CCCN1C(=O)c1cc(C2CC2)c(O)cc1O
Kd (Heat shock protein HSP90 [1]): 0.027 µM | IC50 (Heat shock protein HSP90 [2]): 0.31 µM

CCN1CCCC1CNC(=O)[C@H]1C[C@H](c2ccccc2)CN1C(=O)c1cc(C(C)C)c(O)cc1O (stereo partly specified)
Activity (Heat shock protein HSP90 [1]): inactive | inhibition (Heat shock protein HSP90 [2]): inactive

Cc1ccc(CNC(=O)[C@H]2C[C@H](c3ccccc3)CN2C(=O)c2cc(C3CC3)c(O)cc2O)cc1
Kd (Heat shock protein HSP90 [1]): 0.153 µM | IC50 (HCT-116): 0.471 µM | IC50 (MCF7): 0.089 µM | IC50 (SK-BR-3): 0.431 µM | IC50 (K562): 0.566 µM | IC50 (A549): 0.089 µM

COc1ccc(CNC(=O)[C@H]2C[C@H](c3ccccc3)CN2C(=O)c2cc(C(C)C)c(O)cc2O)cc1
Kd (Heat shock protein HSP90 [1]): 0.147 µM | IC50 (HCT-116): 0.473 µM | IC50 (MCF7): 0.107 µM | IC50 (SK-BR-3): 0.732 µM | IC50 (K562): 0.541 µM | IC50 (A549): 0.103 µM

CC(C)c1cc(C(=O)N2Cc3ccc(CN4CCN(C)CC4)cc3C2)c(O)cc1O [ONALESPIB]
Kd (Heat shock protein HSP90 [1]): 0.027 µM | IC50 (Endoplasmin [3]): 0.03 µM | Kd [12]: 0.05 µM | Kd (Endoplasmin [13]): 0.03 µM | IC50 (HCT-116): 0.102 µM | IC50 (MCF7): 0.053 µM | IC50 (SK-BR-3): 0.197 µM | IC50 (K562): 0.465 µM | IC50 (A549): 0.131 µM | IC50 [4]: 0.05 µM | Ratio IC50 [5]: 0.6

COc1ccc(C(C)NC(=O)[C@H]2C[C@H](c3ccccc3)CN2C(=O)c2cc(C3CC3)c(O)cc2O)cc1 (stereo partly specified)
Kd (Heat shock protein HSP90 [1]): 0.263 µM | IC50 (HCT-116): 0.641 µM | IC50 (MCF7): 0.126 µM | IC50 (SK-BR-3): 0.451 µM | IC50 (K562): 0.667 µM | IC50 (A549): 0.082 µM

CC(C)c1cc(C(=O)N2C[C@@H](c3ccccc3)C[C@@H]2C(=O)NCCc2ccccc2)c(O)cc1O
Kd (Heat shock protein HSP90 [1]): 0.032 µM | IC50 (Endoplasmin [3]): 0.304 µM | IC50 (HCT-116): 0.271 µM | IC50 (MCF7): 0.054 µM | IC50 (SK-BR-3): 0.371 µM | IC50 (K562): 0.623 µM | IC50 (A549): 0.045 µM | IC50 [4]: 0.137 µM | Ratio IC50 [5]: 2.22

CC(NC(=O)[C@H]1C[C@H](c2ccccc2)CN1C(=O)c1cc(C2CC2)c(O)cc1O)c1ccccc1 (stereo partly specified)
Kd (Heat shock protein HSP90 [1]): 0.201 µM | IC50 (HCT-116): 0.631 µM | IC50 (MCF7): 0.101 µM | IC50 (SK-BR-3): 0.633 µM | IC50 (K562): 0.702 µM | IC50 (A549): 0.107 µM

CC(C)NC(=O)Oc1ccc2c(c1)CN(C(=O)c1cc(C3CC3)c(O)cc1O)C2
Kd (Heat shock protein HSP90 [1]): 0.02 µM | IC50 (Heat shock protein HSP90 [2]): 0.27 µM

CCCCN(CCCC)C(=O)[C@H]1C[C@H](c2ccccc2)CN1C(=O)c1cc(C(C)C)c(O)cc1O
Activity (Heat shock protein HSP90 [1]): inactive | inhibition (Heat shock protein HSP90 [2]): inactive

COc1ccc(CNC(=O)[C@H]2C[C@H](c3ccccc3)CN2C(=O)c2cc(C3CC3)c(O)cc2O)cc1
Kd (Heat shock protein HSP90 [1]): 0.168 µM | IC50 (HCT-116): 0.631 µM | IC50 (MCF7): 0.167 µM | IC50 (SK-BR-3): 0.631 µM | IC50 (K562): 0.561 µM | IC50 (A549): 0.113 µM
